According to patent US7612064B2, “Sulfopyrroles” (Takeda Pharmaceutical Company Limited, priority 2003, dated 2009):

Tests used:
HeLa = test: MTS proliferation assay; type: cell-based, human; conditions: 72 h
Summary of the method: (§1)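 Four-point treatment (0.3–10 μM final) ran 72 h in complete medium, with the compound-containing addition holding no more than 5% DMSO. Metabolic activity was then developed with MTS reagent over 3 h and quantified by absorbance (492 nm).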

Jurkat = test: MTS proliferation assay; type: cell-based, human; conditions: 72 h
Summary of the method: as §1

Jily = test: MTS proliferation assay; type: cell-based; conditions: 72 h
Summary of the method: as §1

MRC5 = test: MTS proliferation assay; type: cell-based; conditions: MRC5, 72 h
Summary of the method: as §1

[1] = Hoechst 33342 nuclear staining; type: cell-based; conditions: for Hoechst 33342 nuclear staining score, H460: H460 cells; for Hoechst 33342 nuclear staining score, HeLa: HeLa cells; for Hoechst 33342 nuclear staining score, Jily: Jily cells; for Hoechst 33342 nuclear staining score, Jurkat: Jurkat cells; for Hoechst 33342 nuclear staining score, MRC5: MRC5 cells;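 as to all read-outs here: apoptotic nuclei scored 0 none 1 weak under 50% of cells 2 strong over 50% of cells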
Summary of the method: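 After a further 30 min incubation, plates were inspected on a standard inverted fluorescence microscope. The fraction of apoptotic nuclei and other apoptosis-specific morphology were scored as 0 for no activity, 1 for weak activity in less than 50% of the cells, and 2 for strong activity in more than 50% of the cells.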

Compound | IC50 (HeLa) | IC50 (Jurkat) | IC50 (Jily) | IC50 (MRC5) | Hoechst 33342 nuclear staining score, H460 ([1]; conc 0.1) | Hoechst 33342 nuclear staining score, H460 ([1]; conc 0.3) | Hoechst 33342 nuclear staining score, H460 ([1]; conc 1) | Hoechst 33342 nuclear staining score, H460 ([1]; conc 3) | Hoechst 33342 nuclear staining score, HeLa ([1]; conc 0.1) | Hoechst 33342 nuclear staining score, HeLa ([1]; conc 0.3) | Hoechst 33342 nuclear staining score, HeLa ([1]; conc 1) | Hoechst 33342 nuclear staining score, HeLa ([1]; conc 3) | Hoechst 33342 nuclear staining score, Jurkat ([1]; conc 0.1) | Hoechst 33342 nuclear staining score, Jurkat ([1]; conc 0.3) | Hoechst 33342 nuclear staining score, Jurkat ([1]; conc 1) | Hoechst 33342 nuclear staining score, Jurkat ([1]; conc 3) | Hoechst 33342 nuclear staining score, PBLs ([1]; conc 0.1) | Hoechst 33342 nuclear staining score, PBLs ([1]; conc 0.3) | Hoechst 33342 nuclear staining score, PBLs ([1]; conc 1) | Hoechst 33342 nuclear staining score, PBLs ([1]; conc 3) | other results
COc1ccc(S(=O)(=O)n2cc(-c3cncc(C(N)=O)c3)cc2-c2ccccc2OC)cc1 [Example 107] | > 1000 nM | < 1000 nM | < 1000 nM | > 1000 nM | 0 | 0 | 1 (weak activity comprising less than 50% of the cells) | 2 (strong activity comprising more than 50% of the cells) | 0 | 0 | 0 | 2 (strong activity comprising more than 50% of the cells) | 0 | 0 | 2 (strong activity comprising more than 50% of the cells) | 2 (strong activity comprising more than 50% of the cells) | 0 | 0 | 0 | 0 | Hoechst 33342 nuclear staining score, Jily ([1]; conc 0.1): 0; Hoechst 33342 nuclear staining score, Jily ([1]; conc 0.3): 0; Hoechst 33342 nuclear staining score, Jily ([1]; conc 1): 2 (strong activity comprising more than 50% of the cells); Hoechst 33342 nuclear staining score, Jily ([1]; conc 3): 2 (strong activity comprising more than 50% of the cells); Hoechst 33342 nuclear staining score, MRC5 ([1]; conc 0.1): 0; Hoechst 33342 nuclear staining score, MRC5 ([1]; conc 0.3): 0; Hoechst 33342 nuclear staining score, MRC5 ([1]; conc 1): 0; Hoechst 33342 nuclear staining score, MRC5 ([1]; conc 3): 0
COc1ccc(S(=O)(=O)n2cc(-c3ccc(N)nc3)cc2-c2cc(OC)ccc2OC)cc1 [Example 101] | < 1000 nM | < 200 nM | < 200 nM | < 1000 nM | 0 | 2 (strong activity comprising more than 50% of the cells) | 2 (strong activity comprising more than 50% of the cells) | 2 (strong activity comprising more than 50% of the cells) | 0 | 2 (strong activity comprising more than 50% of the cells) | 2 (strong activity comprising more than 50% of the cells) | 2 (strong activity comprising more than 50% of the cells) | 0 | 2 (strong activity comprising more than 50% of the cells) | 2 (strong activity comprising more than 50% of the cells) | 2 (strong activity comprising more than 50% of the cells) | 0 | 0 | 0 | 0 | Hoechst 33342 nuclear staining score, Jily ([1]; conc 0.1): 0; Hoechst 33342 nuclear staining score, Jily ([1]; conc 0.3): 2 (strong activity comprising more than 50% of the cells); Hoechst 33342 nuclear staining score, Jily ([1]; conc 1): 2 (strong activity comprising more than 50% of the cells); Hoechst 33342 nuclear staining score, Jily ([1]; conc 3): 2 (strong activity comprising more than 50% of the cells); Hoechst 33342 nuclear staining score, MRC5 ([1]; conc 0.1): 0; Hoechst 33342 nuclear staining score, MRC5 ([1]; conc 0.3): 2 (strong activity comprising more than 50% of the cells); Hoechst 33342 nuclear staining score, MRC5 ([1]; conc 1): 2 (strong activity comprising more than 50% of the cells); Hoechst 33342 nuclear staining score, MRC5 ([1]; conc 3): 2 (strong activity comprising more than 50% of the cells)
COc1ccc(S(=O)(=O)n2cc(CNc3ccc(N4CCOCC4)cc3)cc2-c2ccccc2OC)cc1 [Example 97] | > 1000 nM | > 1000 nM | > 1000 nM | > 1000 nM | 0 | 0 | 0 | 0 | 0 | 0 | 0 | 0 | 0 | 0 | 0 | 0 | 0 | 0 | 0 | 0 | Hoechst 33342 nuclear staining score, Jily ([1]; conc 0.1): 0; Hoechst 33342 nuclear staining score, Jily ([1]; conc 0.3): 0; Hoechst 33342 nuclear staining score, Jily ([1]; conc 1): 0; Hoechst 33342 nuclear staining score, Jily ([1]; conc 3): 0; Hoechst 33342 nuclear staining score, MRC5 ([1]; conc 0.1): 0; Hoechst 33342 nuclear staining score, MRC5 ([1]; conc 0.3): 0; Hoechst 33342 nuclear staining score, MRC5 ([1]; conc 1): 0; Hoechst 33342 nuclear staining score, MRC5 ([1]; conc 3): 0

Further lines, with some results ahead:

IC50 (HeLa) | IC50 (Jurkat) | Compound | IC50 (Jily) | IC50 (MRC5) | Hoechst 33342 nuclear staining score, H460 ([1]; conc 0.1) | Hoechst 33342 nuclear staining score, H460 ([1]; conc 0.3) | Hoechst 33342 nuclear staining score, H460 ([1]; conc 1) | Hoechst 33342 nuclear staining score, H460 ([1]; conc 3) | Hoechst 33342 nuclear staining score, HeLa ([1]; conc 0.1) | Hoechst 33342 nuclear staining score, HeLa ([1]; conc 0.3) | Hoechst 33342 nuclear staining score, HeLa ([1]; conc 1) | Hoechst 33342 nuclear staining score, HeLa ([1]; conc 3) | Hoechst 33342 nuclear staining score, Jurkat ([1]; conc 0.1) | Hoechst 33342 nuclear staining score, Jurkat ([1]; conc 0.3) | Hoechst 33342 nuclear staining score, Jurkat ([1]; conc 1) | Hoechst 33342 nuclear staining score, Jurkat ([1]; conc 3) | Hoechst 33342 nuclear staining score, PBLs ([1]; conc 0.1) | Hoechst 33342 nuclear staining score, PBLs ([1]; conc 0.3) | Hoechst 33342 nuclear staining score, PBLs ([1]; conc 1) | Hoechst 33342 nuclear staining score, PBLs ([1]; conc 3) | other results
> 1000 nM | > 1000 nM | COc1cc(-c2cc(-c3cccnc3)cn2S(=O)(=O)c2ccc(F)cc2)cc(OC)c1OC [Example 80] | > 1000 nM | > 1000 nM | 0 | 0 | 0 | 0 | 0 | 0 | 0 | 0 | 0 | 0 | 0 | 2 (strong activity comprising more than 50% of the cells) | 0 | 0 | 0 | 0 | Hoechst 33342 nuclear staining score, Jily ([1]; conc 0.1): 0; Hoechst 33342 nuclear staining score, Jily ([1]; conc 0.3): 0; Hoechst 33342 nuclear staining score, Jily ([1]; conc 1): 0; Hoechst 33342 nuclear staining score, Jily ([1]; conc 3): 2 (strong activity comprising more than 50% of the cells); Hoechst 33342 nuclear staining score, MRC5 ([1]; conc 0.1): 0; Hoechst 33342 nuclear staining score, MRC5 ([1]; conc 0.3): 0; Hoechst 33342 nuclear staining score, MRC5 ([1]; conc 1): 0; Hoechst 33342 nuclear staining score, MRC5 ([1]; conc 3): 0
< 1000 nM | < 200 nM | COc1cc(-c2cc(-c3ccc(S(N)(=O)=O)cc3)cn2S(=O)(=O)c2ccc(C)cc2)cc(OC)c1OC [Example 57] | < 1000 nM | < 1000 nM |  |  |  |  | 0 | 0 | 0 | 2 (strong activity comprising more than 50% of the cells) | 0 | 0 | 1 (weak activity comprising less than 50% of the cells) | 2 (strong activity comprising more than 50% of the cells) | 0 | 0 | 0 | 0 | 
